By EC50 is commonly meant the concentration giving half of the maximal effect.

One series has as its system GlyT1 WT. As to conditions: read-out: Glycine EC50, glycine transport. How it is done:
(§1) Human GlyT1b or GlyT2a (herein referred to as GlyT1 and GlyT2) cDNA were sub-cloned into the plasmid oocyte transcription vector (pOTV). Site-directed mutagenesis was performed using traditional PCR techniques, and sequences confirmed by the Australian Genome Research Facility (Sydney, Australia). WT and mutant plasmid DNA were linearised with SpeI (New England Biolabs (Genesearch) Arundel, Australia) and RNA transcribed by T7 RNA polymerase using the mMessagemMachine kit (Ambion, TX, USA).
(§2) Oocytes were extracted from female Xenopus laevis frogs and detached from follicle cell containing lobes by digestion with 2 mg/mL collagenase A (Boehringer, Mannheim, Germany). Defoliculated stage V-VI oocytes were injected with 4.6 ng of cRNA encoding WT or mutant transporter (Drummond Nanoinject, Drummond Scientific Co., Broomall, PA, USA). Surgical proceedures have been approved by the University of Sydney Animal Ethics Committee (protocol 2016/970). […]
(§3) 2–5 days following injection, glycine transport currents were measured at −60 mV using Geneclamp 500 amplifier (Axon Instruments, Foster City, CA, USA) with a Powerlab 2/20 chart recorder (ADInstruments, Sydney, Australia) and chart software (ADInstruments). All data were subsequently analysed using GraphPad Prism 7.02 (GraphPad Software, San Diego, CA). […]

Another series concerns the target T1, GlyT2 WT (Homo sapiens, UniProt Q9Y345).
T1 sequence (Q9Y345 1-797): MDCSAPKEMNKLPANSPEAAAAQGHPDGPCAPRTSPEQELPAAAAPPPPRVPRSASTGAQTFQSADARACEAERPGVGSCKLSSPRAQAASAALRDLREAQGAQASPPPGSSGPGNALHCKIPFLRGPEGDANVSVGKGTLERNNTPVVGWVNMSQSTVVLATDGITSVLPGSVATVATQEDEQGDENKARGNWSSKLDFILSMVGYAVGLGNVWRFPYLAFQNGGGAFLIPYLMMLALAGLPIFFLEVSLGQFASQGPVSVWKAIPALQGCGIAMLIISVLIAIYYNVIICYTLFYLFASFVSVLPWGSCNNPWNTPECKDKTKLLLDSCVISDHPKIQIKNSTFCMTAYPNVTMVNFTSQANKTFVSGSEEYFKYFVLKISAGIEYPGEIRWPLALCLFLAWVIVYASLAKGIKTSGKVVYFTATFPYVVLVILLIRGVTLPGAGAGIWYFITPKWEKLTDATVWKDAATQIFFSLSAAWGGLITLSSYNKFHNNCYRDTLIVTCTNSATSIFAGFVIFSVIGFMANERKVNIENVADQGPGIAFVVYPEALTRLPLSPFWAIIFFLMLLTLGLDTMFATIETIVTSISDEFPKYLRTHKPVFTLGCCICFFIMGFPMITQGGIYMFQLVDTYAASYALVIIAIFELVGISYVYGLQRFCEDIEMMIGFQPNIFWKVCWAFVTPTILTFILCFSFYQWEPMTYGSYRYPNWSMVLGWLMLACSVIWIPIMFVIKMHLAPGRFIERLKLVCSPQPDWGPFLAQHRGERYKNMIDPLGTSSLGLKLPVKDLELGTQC
The following applies: read-out: Glycine EC50, glycine transport, mean ± SEM. How it is done:
as §1, §2, §3

The next series deals with GlyT2 D469A mutant (Homo sapiens, UniProt Q9Y345, D469A). As to conditions: read-out: Glycine EC50; glycine transport, GlyT2 D469A (vestibule allosteric site). How it is done:
as §1
(§4) Oocytes were extracted from female Xenopus laevis frogs and detached from follicle cell containing lobes by digestion with 2 mg/mL collagenase A (Boehringer, Mannheim, Germany). Defoliculated stage V-VI oocytes were injected with 4.6 ng of cRNA encoding WT or mutant transporter (Drummond Nanoinject, Drummond Scientific Co., Broomall, PA, USA). Surgical proceedures have been approved by the University of Sydney Animal Ethics Committee (protocol 2016/970). The oocytes were stored at 16–18°C for 2–5 days in ND96 solution (96 mM NaCl, 2 mM KCL, 1 mM MgCl2, 1.8 mM CaCl2, 5 mM HEPES, pH 7.55), supplemented with 2.5 mM sodium pyruvate, 0.5 mM theophylline, 50 µg/mL gentamicin and […] tetracycline.
(§5) 2–5 days following injection, glycine transport currents were measured at −60 mV using Geneclamp 500 amplifier (Axon Instruments, Foster City, CA, USA) with a Powerlab 2/20 chart recorder (ADInstruments, Sydney, Australia) and chart software (ADInstruments). All data were subsequently analysed using GraphPad Prism 7.02 (GraphPad Software, San Diego, CA).
(§6) The function of each mutant transporter was tested by measuring glycine concentration dependent transport currents in ND96 (96 mM Na^+) to drive transport. EC50 values were determined using the modified Michaelis-Menten equation:(1) I=([GIy].Imax)/EC50+[GIy] where I is current (nA), [Gly] is the concentration of glycine, Imax is the current generated by a maximal concentration of glycine (300 µM) and EC50 is the concentration of glycine that generates a half maximal current. Values are presented as mean ± SEM obtained fromn ≥3 cells from at least two batches of oocytes. To determine if mutations affected glycine transport, one way ANOVA tests were employed, with a Dunnett’s post-hoc test used for comparison with WT GlyT2. For L425I comparison with WT GlyT1 a two-tailed t-test was used. Statistical significance were represented as p<0.05 *, p<0.01 **, p<0.001 *** etc. in the following figures.
(§7) Glycine concentration response curves were performed on WT and mutant transporters to generate EC50 values. Transport currents were measured in the presence of increasing concentrations of glycine (1 – 300 μM).

The target of the next series is GlyT2 E701A mutant (Homo sapiens, UniProt Q9Y345, E701A). The following applies: read-out: Glycine EC50; glycine transport, GlyT2 E701A (vestibule allosteric site). How it is done: as §1, §4, §5, §6, §7
Chain of GlyT2 E701A mutant (Q9Y345 whole entry E701A): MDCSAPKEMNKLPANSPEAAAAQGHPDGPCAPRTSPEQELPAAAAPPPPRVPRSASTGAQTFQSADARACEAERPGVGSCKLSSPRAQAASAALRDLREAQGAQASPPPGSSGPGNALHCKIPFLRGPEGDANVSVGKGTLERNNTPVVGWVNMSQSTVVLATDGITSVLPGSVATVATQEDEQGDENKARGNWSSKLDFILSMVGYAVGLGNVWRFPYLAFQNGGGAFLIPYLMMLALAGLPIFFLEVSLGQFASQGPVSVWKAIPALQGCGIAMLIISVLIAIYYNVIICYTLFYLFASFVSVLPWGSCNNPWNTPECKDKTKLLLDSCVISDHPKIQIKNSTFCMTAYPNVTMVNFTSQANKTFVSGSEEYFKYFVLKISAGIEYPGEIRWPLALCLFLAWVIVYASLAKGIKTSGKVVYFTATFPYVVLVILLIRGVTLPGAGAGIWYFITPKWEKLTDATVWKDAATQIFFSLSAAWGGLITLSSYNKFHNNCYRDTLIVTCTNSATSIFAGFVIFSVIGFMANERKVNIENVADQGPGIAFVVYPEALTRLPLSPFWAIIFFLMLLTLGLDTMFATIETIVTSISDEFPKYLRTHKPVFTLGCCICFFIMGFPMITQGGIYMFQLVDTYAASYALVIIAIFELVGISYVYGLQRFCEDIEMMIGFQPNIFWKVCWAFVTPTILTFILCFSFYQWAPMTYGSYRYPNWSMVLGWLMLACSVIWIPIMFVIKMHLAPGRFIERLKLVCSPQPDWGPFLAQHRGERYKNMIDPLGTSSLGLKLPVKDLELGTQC
A further series concerns GlyT2 F569A/V/L mutants. As to conditions: glycine transport, GlyT2 F569A/V/L (TM8). How it is done:
as §1, §4, §5, §6, §7

Another series addresses GlyT2 P429A mutant (Homo sapiens, UniProt Q9Y345, P429A). As to conditions: glycine transport, GlyT2 P429A (TM5). How it is done: as §1, §4, §5, §6, §7
The target in a further series is GlyT2 Q473A mutant (Homo sapiens, UniProt Q9Y345, Q473A). As to conditions: read-out: Glycine EC50; glycine transport, GlyT2 Q473A (vestibule allosteric site). How it is done:
as §1, §4, §5, §6, §7

A further series deals with GlyT2 S696A mutant (Homo sapiens, UniProt Q9Y345, S696A). As to conditions: read-out: Glycine EC50; glycine transport, GlyT2 S696A (vestibule allosteric site). How it is done:
as §1, §4, §5, §6, §7

In the next series the target is GlyT2 T472A mutant (Homo sapiens, UniProt Q9Y345, T472A). As to conditions: glycine transport, GlyT2 T472A (vestibule allosteric site). How it is done: as §1, §4, §5, §6, §7
Chain of GlyT2 T472A mutant (Q9Y345 whole entry T472A): as the sequence (Q9Y345 whole entry E701A) above, with T472A, A701E counted along it
The next series has as its target GlyT2 T634A mutant (Homo sapiens, UniProt Q9Y345, T634A). The following applies: read-out: Glycine EC50; glycine transport, GlyT2 T634A (vestibule allosteric site). How it is done: as §1, §4, §5, §6, §7
The subject of series [1] is rat model of neuropathic pain. Further details: method as in Mostyn et al., 2019. As to conditions: ref Mostyn et al., 2019; cited from earlier work.
On the set-up of series [2]: method as in Mostyn et al., 2019. The following applies: ref Mostyn et al., 2019; cited from earlier work.

Chain of GlyT2 Q473A mutant (Q9Y345 whole entry Q473A): as the sequence (Q9Y345 whole entry E701A) above, with Q473A, A701E counted along it
Chain of GlyT2 D469A mutant (Q9Y345 whole entry D469A): as the sequence (Q9Y345 whole entry E701A) above, with D469A, A701E counted along it
Chain of GlyT2 S696A mutant (Q9Y345 whole entry S696A): as the sequence (Q9Y345 whole entry E701A) above, with S696A, A701E counted along it
Chain of GlyT2 P429A mutant (Q9Y345 whole entry P429A): as the sequence (Q9Y345 whole entry E701A) above, with P429A, A701E counted along it
Chain of GlyT2 T634A mutant (Q9Y345 whole entry T634A): as the sequence (Q9Y345 whole entry E701A) above, with T634A, A701E counted along it

As to `NCC(=O)O` [Glycine], the EC50 was 14.4 ± 1.2 µM in the series on GlyT1 WT; 14.5 ± 2.6 µM at GlyT2 WT; 110 ± 12.8 µM on GlyT2 D469A mutant; 16.5 ± 0.87 µM on GlyT2 E701A mutant; 498 ± 146 µM on GlyT2 Q473A mutant; 25.6 ± 2.7 µM at GlyT2 S696A mutant. Also, the EC50 on GlyT2 T634A mutant came to 28.6 ± 3.2 µM. Besides, the “Glycine EC50” value in the series on GlyT2 F569A/V/L mutants, on GlyT2 P429A mutant and at GlyT2 T472A mutant was “No transport currents” in each case.
Consider oleoyl d-Lysine, for which, in series [1], the analgesia entry was “produces analgesia” and the side effects result is “minimal side effects”. Also, the metabolic stability result in series [2] is on record as “metabolically stable”.
